What was measured:
Format in all cases: in vivo
[1] = system: Echinochloa crus-galli; experiment: Pre-emergence herbicidal activity, glasshouse pot test; conditions: pre-emergence spray, rate 1000 g/ha, evaluated after 13 days, scale 0-5
Outline: (§1)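 Damage was rated at 13 days from 0 (none) to 5 (total), in a glasshouse kept at 24/16 °C, 14 h light and 65% humidity with watering twice daily. The aqueous spray of active ingredient in 50:50 acetone/water plus 0.5% Tween 20 was applied to soil one day post-sowing, before emergence.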

[2] = system: Amaranthus retroflexus; experiment: as above; conditions: pre-emergence spray, rate 1000 g/ha, evaluated after 13 days, scale 0-5
Outline: as §1

[3] = system: zea mays; experiment: as above; conditions: pre-emergence spray, rate 1000 g/ha, evaluated after 13 days, scale 0-5
Outline: as §1

[4] = system: Setaria faberi; experiment: as above; conditions: pre-emergence spray, rate 1000 g/ha, evaluated after 13 days, scale 0-5
Outline: as §1

[5] = system: Alopecurus myosuroides; experiment: as above; conditions: pre-emergence spray, rate 1000 g/ha, evaluated after 13 days, scale 0-5
Outline: as §1

[6] = system: Abutilon theophrasti; experiment: as above; conditions: pre-emergence spray, rate 1000 g/ha, evaluated after 13 days, scale 0-5
Outline: as §1

[7] = system: Echinochloa crus-galli; experiment: Post-emergence herbicidal activity, glasshouse pot test; design: key: 0 = no damage to plant, 5 = total damage to plant; conditions: Application post-emergence, rate 1000 g/ha, evaluated after 13 days
Outline: (§2)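 Seeds sown in standard soil in pots, grown 8 days in glasshouse (24/16 °C day/night, 14 h light, 65% humidity), then sprayed with aqueous solution from active ingredient formulated in acetone/water (50:50) with 0.5% Tween 20. Plants regrown under same conditions, watered twice daily; damage scored after 13 days (0 none–5 total).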

[8] = system: Amaranthus retroflexus; experiment: as above; design: key: 0 = no damage to plant, 5 = total damage to plant; conditions: Application post-emergence, rate 1000 g/ha, evaluated after 13 days
Outline: as §2

[9] = system: zea mays; experiment: as above; design: key: 0 = no damage to plant, 5 = total damage to plant; conditions: Application post-emergence, rate 1000 g/ha, evaluated after 13 days
Outline: as §2

[10] = system: Setaria faberi; experiment: as above; design: key: 0 = no damage to plant, 5 = total damage to plant; conditions: Application post-emergence, rate 1000 g/ha, evaluated after 13 days
Outline: as §2

[11] = system: Alopecurus myosuroides; experiment: as above; design: key: 0 = no damage to plant, 5 = total damage to plant; conditions: Application post-emergence, rate 1000 g/ha, evaluated after 13 days
Outline: as §2

[12] = system: Abutilon theophrasti; experiment: as above; design: key: 0 = no damage to plant, 5 = total damage to plant; conditions: Application post-emergence, rate 1000 g/ha, evaluated after 13 days
Outline: as §2

Row | Compound | ECHCG damage score, application pre-emergence [1] | AMARE damage score, application pre-emergence [2] | ZEAMX damage score, application pre-emergence [3] | SETFA damage score, application pre-emergence [4] | ALOMY damage score, application pre-emergence [5] | ABUTH damage score, application pre-emergence [6] | ECHCG herbicidal damage score [7] | AMARE herbicidal damage score [8] | ZEAMX herbicidal damage score [9] | SETFA herbicidal damage score [10] | ALOMY herbicidal damage score [11] | ABUTH herbicidal damage score [12]
1 | CCCC1=C(Cl)C(=O)N(c2cc(C(C)(C)C#N)ncn2)C1O (stereo not drawn) [CF22] | 5 | 5 | 2 | 4 | 2 | 5 | 5 | 5 | 3 | 5 | 5 | 5
2 | CC1=C(Br)C(=O)N(c2cc(C(F)(F)F)ncn2)C1O (stereo not drawn) [CG1] | 5 | 1 | 0 | 4 | 3 | 4 | 5 | 2 | 3 | 5 | 5 | 4
3 | CCC1=C(Br)C(=O)N(c2cc(C(C)(C)C#N)ncn2)C1O (stereo not drawn) [CG2] | 4 | 4 | 2 | 3 | 2 | 5 | 5 | 5 | 5 | 5 | 5 | 5
4 | CC1=C(Br)C(=O)N(c2cc(C(C)(C)C#N)ncn2)C1O (stereo not drawn) [CG3] | 4 | 5 | 3 | 5 | 4 | 4 | 5 | 5 | 3 | 5 | 5 | 5
5 | COC1=C(OC)C(O)N(c2cc(C(F)(F)F)ncn2)C1=O (stereo not drawn) [CK4] | 4 | 4 | 3 | 5 | 4 | 5 | 5 | 3 | 4 | 5 | 5 | 5
6 | CC1=C(Cl)C(=O)N(c2nccc(C(F)(F)F)n2)C1O (stereo not drawn) [DF1] | 4 | 5 | 2 | 4 | 4 | 4 | 5 | 5 | 4 | 5 | 4 | 5
7 | CC1=C(Cl)C(=O)N(c2nccc(C(C)(C)C)n2)C1O (stereo not drawn) [DF2] | 5 | 5 | 2 | 5 | 4 | 5 | 5 | 5 | 1 | 5 | 5 | 5
8 | CCOc1nc(N2C(=O)C(Cl)=C(C)C2O)ncc1C#N (stereo not drawn) [DF4] | 0 | 0 | 0 | 0 | 0 | 0 | 0 | 0 | 0 | 0 | 0 | 0
9 | CC1=C(Cl)C(=O)N(c2nccc(C(C)(C)C#N)n2)C1O (stereo not drawn) [DF5] | 5 | 5 | 3 | 4 | 4 | 5 | 5 | 5 | 3 | 4 | 4 | 5
10 | CC1=C(Cl)C(=O)N(c2ncc(C#N)c(C(C)(C)C)n2)C1O (stereo not drawn) [DF6] | 4 | 5 | 2 | 4 | 3 | 2 | 5 | 5 | 1 | 5 | 4 | 5
11 | COC1=C(C)C(O)N(c2nccc(C(C)(C)C)n2)C1=O (stereo not drawn) [DI1] | 5 | 5 | 2 | 5 | 3 | 5 | 5 | 5 | 1 | 5 | 5 | 5
12 | CCOC(=O)c1cnc(N2C(=O)C(OC)=C(C)C2O)nc1C(F)(F)F (stereo not drawn) [DI2] | 5 | 5 | 3 | 5 | 4 | 5 | 5 | 5 | 4 | 5 | 4 | 5
